Results published in patent US10329309B2, “3-(3H-imidazo[4,5-B]pyridin-2-yl)-1H-pyrazolo[4,3-B]pyridines and therapeutic uses thereof” (Samumed, LLC, priority 2015, dated 2019).

Tests used:
Assay type in all cases: cell-based
[1] = tested on: Wnt activity (Sp5-Luc reporter, SW480 colon carcinoma cells); assay: Screening assay for Wnt activity: Sp5-Luc reporter gene assay in SW480 cells; conditions: Homo sapiens, overnight incubation, 10-point dose-response from 10 μM
Procedure, shortened: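 SW480 cells stably carrying Sp5-Luc reporter (eight TCF/LEF sites) plated at 4,000/well in 1% FBS medium with compound (10-point 1:3 series from 10 μM, 0.1% DMSO) overnight at 37 °C. BrightGlo luminescence normalized to DMSO; EC50 by four-parameter fit, else % inhibition at 10 μM.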

SW480 colon cancer cells = assay: Cell viability assay (CellTiter-Blue), four days; conditions: Homo sapiens, 96 h; for EC50: CellTiter-Blue cell viability; for inhibition at 10 µM: read-out: percent inhibition at 10 μM (given for EC50 of >10 μM)
Procedure, shortened: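 SW480 colon cancer cells (~2×10^3/well) exposed to 8-point 1:3 dilutions from 10 μM to 0.0045 μM for four days at 37 °C/5% CO2. Viability read by resazurin (CellTiter-Blue) fluorescence after ~3 h, Ex 560/Em 590 nm. EC50 from non-linear regression; percent inhibition at 10 μM given when EC50 >10 μM.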

[2] = tested on: primary human fibroblasts derived from IPF patients (LL29 cells), α-smooth muscle actin (αSMA); assay: Inhibition of the fibrotic process: TGF-β1-treated primary human fibroblasts from IPF patients, αSMA staining; conditions: Fibroblast, 96 h, 4 days; for EC50: LL29 fibroblasts from IPF patients, TGF-β1 20 ng/mL, inhibition of fibrotic process; for inhibition at 10 µM: LL29 fibroblasts, TGF-β1 treated, read-out: percent inhibition at 10 μM (given for EC50 of >10 μM)
Procedure, shortened: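 LL29 IPF-patient lung fibroblasts in 1% FBS F12 were given compounds (11-point, 10 μM to […], 0.1% DMSO) plus TGF-β1 20 ng/mL for 4 days at 37 °C. αSMA-positive fraction of live (SYTOX-negative) cells was imaged and normalized to TGF-β1/DMSO wells. EC50 by non-linear regression, or % inhibition at 10 μM if >10 μM.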

SMILES | EC50 [1] | EC50 (SW480 colon cancer cells) | EC50 [2] | inhibition at 10 µM [2] | inhibition at 10 µM (SW480 colon cancer cells)
CS(=O)(=O)NCc1cc(F)cc(-c2ccnc3[nH]c(-c4n[nH]c5ccc(-c6cncc(CNCc7ccccc7)c6)nc45)nc23)c1 [Compound 500, N-(3-(2-(5-(5-((Benzylamino)methyl)pyridin-3-yl)-1H-pyrazolo[4,3-b]pyridin-3-yl)-3H-imidazo[4,5-b]pyridin-7-yl)-5-fluorobenzyl)methanesulfonamide] | 3580 nM | 8840 nM | 9260 nM |  | 
Fc1cccc(-c2ccnc3[nH]c(-c4n[nH]c5ccc(C6=CCNCC6)nc45)nc23)c1 [Compound 506, 3-(7-(3-fluorophenyl)-3H-imidazo[4,5-b]pyridin-2-yl)-5-(1,2,3,6-tetrahydropyridin-4-yl)-1H-pyrazolo[4,3-b]pyridine] | > 10000 nM | 2800 nM | > 10000 nM | 0% | 
NC1CN(c2cncc(-c3ccc4[nH]nc(-c5nc6c(-c7cccc(F)c7)ccnc6[nH]5)c4n3)n2)C1 [Compound 510, 1-(6-(3-(7-(3-fluorophenyl)-3H-imidazo[4,5-b]pyridin-2-yl)-1H-pyrazolo[4,3-b]pyridin-5-yl)pyrazin-2-yl)azetidin-3-amine] | 3710 nM | 1600 nM | > 10000 nM | 0% | 
Fc1cccc(-c2ccnc3[nH]c(-c4n[nH]c5ccc(-c6cncc(OCCN7CCCC7)c6)nc45)nc23)c1 [Compound 514, 3-(7-(3-Fluorophenyl)-3H-imidazo[4,5-b]pyridin-2-yl)-5-(5-(2-(pyrrolidin-1-yl)ethoxy)pyridin-3-yl)-1H-pyrazolo[4,3-b]pyridine] | 4110 nM | 8650 nM | > 10000 nM | 0% | 
CN(C)CCOc1cncc(-c2ccc3[nH]nc(-c4nc5c(-c6cccc(F)c6)ccnc5[nH]4)c3n2)c1 [Compound 515, 2-((5-(3-(7-(3-fluorophenyl)-3H-imidazo[4,5-b]pyridin-2-yl)-1H-pyrazolo[4,3-b]pyridin-5-yl)pyridin-3-yl)oxy)-N,N-dimethylethan-1-amine] | 2840 nM | 1100 nM | 2610 nM |  | 
Fc1cccc(-c2ccnc3[nH]c(-c4n[nH]c5ccc(-c6cnccn6)nc45)nc23)c1 [Compound 520, 3-(7-(3-fluorophenyl)-3H-imidazo[4,5-b]pyridin-2-yl)-5-(pyrazin-2-yl)-1H-pyrazolo[4,3-b]pyridine] | 3620 nM | 2040 nM | 5330 nM |  | 
CN(C)CC(=O)Nc1cncc(-c2ccc3[nH]nc(-c4nc5c(-c6cccc(F)c6)ccnc5[nH]4)c3n2)c1 [Compound 969, 2-(dimethylamino)-N-(5-(3-(7-(3-fluorophenyl)-3H-imidazo[4,5-b]pyridin-2-yl)-1H-pyrazolo[4,3-b]pyridin-5-yl)pyridin-3-yl)acetamide] | 4360 nM | > 10000 nM | 4930 nM |  | 27.7%
COc1cccc(-c2ccnc3[nH]c(-c4n[nH]c5ccc(-c6cncc(NC(=O)Cc7ccccc7)c6)nc45)nc23)c1 [Compound 1000, N-(5-(3-(7-(3-methoxyphenyl)-3H-imidazo[4,5-b]pyridin-2-yl)-1H-pyrazolo[4,3-b]pyridin-5-yl)pyridin-3-yl)-2-phenylacetamide] | 2800 nM | 1100 nM | > 10000 nM | 23.4% | 
COc1cccc(-c2ccnc3[nH]c(-c4n[nH]c5ccc(-c6cncc(NC(=O)C7CCCCC7)c6)nc45)nc23)c1 [Compound 1012, N-(5-(3-(7-(3-Methoxyphenyl)-3H-imidazo[4,5-b]pyridin-2-yl)-1H-pyrazolo [4,3-b]pyridin-5-yl)pyridin-3-yl)cyclohexanecarboxamide] | 1910 nM | 2910 nM | 1170 nM |  | 
Clc1ccc(-c2ccnc3[nH]c(-c4n[nH]c5ccc(-c6cncc(CN7CCCC7)c6)nc45)nc23)s1 [Compound 1049, 3-(7-(5-chlorothiophen-2-yl)-3H-imidazo[4,5-b]pyridin-2-yl)-5-(5-(pyrrolidin-1-ylmethyl)pyridin-3-yl)-1H-pyrazolo[4,3-b]pyridine] | 7700 nM | 2750 nM | 681 nM |  | 
NC1CN(c2cncc(-c3ccc4[nH]nc(-c5nc6c(-c7ccc(Cl)s7)ccnc6[nH]5)c4n3)n2)C1 [Compound 1068, 1-(6-(3-(7-(5-Chlorothiophen-2-yl)-3H-imidazo[4,5-b]pyridin-2-yl)-1H-pyrazolo[4,3-b]pyridin-5-yl)pyrazin-2-yl)azetidin-3-amine] | 2300 nM | > 10000 nM | 938 nM |  | 17.8%

Continued, in another order:

EC50 [1] | EC50 (SW480 colon cancer cells) | SMILES | EC50 [2] | inhibition at 10 µM [2] | inhibition at 10 µM (SW480 colon cancer cells)
1250 nM | 5570 nM | Cc1ccncc1-c1ccc2[nH]nc(-c3nc4c(-c5cc(F)cc(CNS(C)(=O)=O)c5)ccnc4[nH]3)c2n1 [Compound 481, N-(3-fluoro-5-(2-(5-(4-methylpyridin-3-yl)-1H-pyrazolo[4,3-b]pyridin-3-yl)-3H-imidazo[4,5-b]pyridin-7-yl)benzyl)methanesulfonamide] | 5180 nM |  | 
120 nM | 115 nM | Cc1ncc(-c2ccc3[nH]nc(-c4nc5c(-c6cccc(F)c6)ccnc5[nH]4)c3n2)n1C [Compound 509, 5-(1,2-dimethyl-1H-imidazol-5-yl)-3-(7-(3-fluorophenyl)-3H-imidazo[4,5-b]pyridin-2-yl)-1H-pyrazolo[4,3-b]pyridine] | > 10000 nM | 0% | 
338 nM | 120 nM | COc1cncc(-c2ccc3[nH]nc(-c4nc5c(-c6cccc(F)c6)ccnc5[nH]4)c3n2)c1 [Compound 516, 3-(7-(3-fluorophenyl)-3H-imidazo[4,5-b]pyridin-2-yl)-5-(5-methoxypyridin-3-yl)-1H-pyrazolo[4,3-b]pyridine] | 1580 nM |  | 
423 nM | 768 nM | Oc1cncc(-c2ccc3[nH]nc(-c4nc5c(-c6cccc(F)c6)ccnc5[nH]4)c3n2)c1 [Compound 517, 5-(3-(7-(3-fluorophenyl)-3H-imidazo[4,5-b]pyridin-2-yl)-1H-pyrazolo[4,3-b]pyridin-5-yl)pyridin-3-ol] | 1150 nM |  | 
1870 nM | 897 nM | COc1cccc(-c2ccnc3[nH]c(-c4n[nH]c5ccc(-c6cccnc6)nc45)nc23)c1 [Compound 994, 3-(7-(3-methoxyphenyl)-3H-imidazo[4,5-b]pyridin-2-yl)-5-(pyridin-3-yl)-1H-pyrazolo[4,3-b]pyridine] | 590 nM |  | 
1550 nM | 1180 nM | COc1cccc(-c2ccnc3[nH]c(-c4n[nH]c5ccc(-c6cncc(NC(=O)CC(C)(C)C)c6)nc45)nc23)c1 [Compound 1006, N-(5-(3-(7-(3-methoxyphenyl)-3H-imidazo[4,5-b]pyridin-2-yl)-1H-pyrazolo[4,3-b]pyridin-5-yl)pyridin-3-yl)-3,3-dimethylbutanamide] | 2490 nM |  | 
1490 nM | 110 nM | CC(C)CC(=O)Nc1cncc(-c2ccc3[nH]nc(-c4nc5c(-c6ccc(Cl)s6)ccnc5[nH]4)c3n2)c1 [Compound 1037, N-(5-(3-(7-(5-chlorothiophen-2-yl)-3H-imidazo[4,5-b]pyridin-2-yl)-1H-pyrazolo [4,3-b]pyridin-5-yl)pyridin-3-yl)-3-methylbutanamide] | 511 nM |  | 
644 nM | > 10000 nM | CC(C)(C)C(=O)Nc1cncc(-c2ccc3[nH]nc(-c4nc5c(-c6ccc(Cl)s6)ccnc5[nH]4)c3n2)c1 [Compound 1043, N-(5-(3-(7-(5-chlorothiophen-2-yl)-3H-imidazo[4,5-b]pyridin-2-yl)-1H-pyrazolo [4,3-b]pyridin-5-yl)pyridin-3-yl)pivalamide] | 419 nM |  | 14.5%
354 nM | 109 nM | O=C(Nc1cncc(-c2ccc3[nH]nc(-c4nc5c(-c6ccc(Cl)s6)ccnc5[nH]4)c3n2)c1)C1CCC1 [Compound 1056, N-(5-(3-(7-(5-chlorothiophen-2-yl)-3H-imidazo[4,5-b]pyridin-2-yl)-1H-pyrazolo [4,3-b]pyridin-5-yl)pyridin-3-yl)cyclobutanecarboxamide] | 284 nM |  | 
